# Data reported in the supplement of paper PMC10307832.
# Columns and labels:
# Assay in all cases: relative viability (nuclei count vs DMSO), 5 days (fraction); higher = more cells survive
# [1] = compound: C1CNCCC1C2=CC(=NN2)C3=CC=NC=C3 + CC(=O)c1c(C)c2cnc(Nc3ccc(N4CCNCC4)cn3)nc2n(C2CCCC2)c1=O [Palbociclib] (partner 0.5 µM)
# Procedure, shortened: (§1)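 Relative viability was taken as the ratio of nuclei in treated wells to nuclei in vehicle wells. Lung cancer cell lines in 1536-well plates received compounds by pin tool one day after seeding, either one drug alone or a fixed anchor-drug dose plus five library-drug doses (not always all listed) in √10 steps. Nuclei were counted on 4× images after 5 days of treatment, and values are medians of duplicate plates.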
# [2] = compound: C[C@@H](N)c1ccc(C(=O)Nc2ccnc3[nH]ccc23)cc1 + CC(=O)Nc1cccc(-n2c(=O)n(C3CC3)c(=O)c3c(Nc4ccc(I)cc4F)n(C)c(=O)c(C)c32)c1 [Trametinib] (partner 0.02 µM)
# Procedure, shortened: as §1
# [3] = compound: C[C@@H](N)c1ccc(C(=O)Nc2ccnc3[nH]ccc23)cc1 + Cc1nc(NC(=O)N2CCC[C@H]2C(N)=O)sc1-c1ccnc(C(C)(C)C(F)(F)F)c1 [Alpelisib] (partner 2 µM)
# Procedure, shortened: as §1
# [4] = compound: O[C@H]1CC[C@H](Nc2ncc3nc(Nc4c(F)cc(F)cc4F)n([C@H]4CCOC4)c3n2)CC1 [Tanzisertib] + CCNC(=O)c1noc(-c2cc(C(C)C)c(O)cc2O)c1-c1ccc(CN2CCOCC2)cc1 [Luminespib] (partner 0.01 µM)
# Procedure, shortened: as §1
Cell Line,relative viability ([1]; first compound 0.08 µM),relative viability ([1]; first compound 0.8 µM),relative viability ([1]; first compound 2.53 µM),relative viability ([1]; first compound 8 µM),relative viability ([2]; first compound 0.1265 µM),relative viability ([2]; first compound 0.4 µM),relative viability ([2]; first compound 4 µM),relative viability ([3]; first compound 0.04 µM),relative viability ([3]; first compound 0.1265 µM),relative viability ([3]; first compound 0.4 µM),relative viability ([3]; first compound 4 µM),relative viability ([4]; first compound 0.08 µM),relative viability ([4]; first compound 0.253 µM),relative viability ([4]; first compound 0.8 µM),relative viability ([4]; first compound 2.53 µM),relative viability ([4]; first compound 8 µM),relative viability ([2]; first compound 0.04 µM),relative viability ([2]; first compound 1.265 µM),relative viability ([3]; first compound 1.265 µM)
NCI-H1915,0.502,0.521,0.493,0.529,0.299,0.298,0.239,1.12,1.06,1.06,0.873,0.875,0.839,0.808,0.789,0.776,–,–,–
NCI-H2009,0.123,0.148,0.189,0.238,0.268,0.236,0.214,1.11,1.13,1.1,0.786,1.09,1.06,1.11,1.02,1.04,0.219,0.21,0.996
ChaGo-K-1,0.928,0.939,0.943,0.923,0.863,0.823,0.789,–,–,–,–,0.573,0.406,0.552,0.589,0.648,0.888,0.894,–
COR-L 105,0.394,0.405,0.421,0.472,0.518,0.449,0.458,0.876,1.07,0.918,0.65,0.795,0.754,0.651,0.986,0.69,0.441,0.417,0.957
NCI-H2170,0.36,0.454,0.407,0.4,0.944,0.926,0.939,0.879,0.436,0.765,0.627,0.857,0.739,0.633,0.684,0.78,0.959,0.999,0.833
A549,–,–,–,–,–,–,–,0.877,0.834,0.846,0.559,–,–,–,–,–,–,–,0.751
SW 1573,–,0.471,0.405,0.411,0.615,0.598,0.529,0.852,0.984,0.832,0.509,0.294,0.24,0.18,0.187,0.339,0.767,0.56,0.563
NCI-H1975,0.629,0.342,0.668,0.645,0.4,0.449,0.233,0.692,0.593,0.553,0.534,0.331,0.142,0.232,0.161,0.247,0.286,0.194,0.617
Calu-6,–,–,–,–,–,–,–,0.958,1.01,0.904,0.797,–,–,–,–,–,–,–,0.765
NCI-H1648,0.266,0.352,–,0.243,0.581,0.574,0.722,–,–,–,–,–,–,–,–,–,0.57,0.266,–
NCI-H1623,–,–,–,–,–,–,–,–,–,–,–,0.617,0.443,0.484,0.502,0.624,–,–,–
NCI-H3122,0.152,0.185,0.181,0.178,0.229,0.223,0.234,0.827,0.76,0.827,0.797,0.134,0.0952,0.125,0.0854,0.103,0.231,0.26,0.762
